Data published in ChEMBL document CHEMBL5576081, “Exploring the structural activity relationship of the Osimertinib: A covalent inhibitor of double mutant EGFRL858R/T790M tyrosine kinase for the treatment of Non-Small Cell Lung Cancer (NSCLC)” (Bioorg Med Chem, 2024).
pIC50: −log10 of the molar value. Each block holds one compound with its values, some of them ahead of it.

Legend:
LoVo [1] = experiment: Antiproliferative activity against human LoVo cells harboring wild-type EGFR assessed as reduction in cell growth incubated for 72 hrs by CCK8 assay; assay type: functional, cell-based
PC-9 [2] = experiment: Antiproliferative activity against human PC-9 cells harboring EGFR Del19 mutant assessed as inhibition of cell growth incubated for 72 hrs by CCK8 assay; assay type: functional, cell-based; settings: PC-9, 72 h
NCI-H1975 [3] = experiment: Antiproliferative activity against human NCI-H1975 cells harboring EGFR L858R/T790M double mutant assessed as reduction in cell growth incubated for 72 hrs by CellTiter-Glo luminescent assay; assay type: functional, cell-based; settings: NCI-H1975, 72 h
A-431 = experiment: Antiproliferative activity against human A-431 cells assessed as reduction in cell viability incubated for 48 hrs by MTT assay; assay type: functional, cell-based; settings: A-431, 48 h
NCI-H1975 [4] = experiment: Antiproliferative activity against human NCI-H1975 cells assessed as reduction in cell viability incubated for 72 hrs by Cell-titer glo assay; assay type: functional, cell-based; settings: NCI-H1975, 72 h
[5] = Antiproliferative activity against mouse Ba/F3 EGFR-T790M/L858R cells incubated for 3 days by Cell Titer-Glo assay; assay type: functional, cell-based; settings: 72 h
[6] = Antiproliferative activity against mouse KC-0116 cells; assay type: toxicity, cell-based
[7] = target: Epidermal growth factor receptor (Homo sapiens, UniProt P00533, L858R/T790M); experiment: Inhibition of EGFR L858R/T790M (unknown origin)
Epidermal growth factor receptor, sequence (P00533 25-1210 T790M/L858R limits assumed): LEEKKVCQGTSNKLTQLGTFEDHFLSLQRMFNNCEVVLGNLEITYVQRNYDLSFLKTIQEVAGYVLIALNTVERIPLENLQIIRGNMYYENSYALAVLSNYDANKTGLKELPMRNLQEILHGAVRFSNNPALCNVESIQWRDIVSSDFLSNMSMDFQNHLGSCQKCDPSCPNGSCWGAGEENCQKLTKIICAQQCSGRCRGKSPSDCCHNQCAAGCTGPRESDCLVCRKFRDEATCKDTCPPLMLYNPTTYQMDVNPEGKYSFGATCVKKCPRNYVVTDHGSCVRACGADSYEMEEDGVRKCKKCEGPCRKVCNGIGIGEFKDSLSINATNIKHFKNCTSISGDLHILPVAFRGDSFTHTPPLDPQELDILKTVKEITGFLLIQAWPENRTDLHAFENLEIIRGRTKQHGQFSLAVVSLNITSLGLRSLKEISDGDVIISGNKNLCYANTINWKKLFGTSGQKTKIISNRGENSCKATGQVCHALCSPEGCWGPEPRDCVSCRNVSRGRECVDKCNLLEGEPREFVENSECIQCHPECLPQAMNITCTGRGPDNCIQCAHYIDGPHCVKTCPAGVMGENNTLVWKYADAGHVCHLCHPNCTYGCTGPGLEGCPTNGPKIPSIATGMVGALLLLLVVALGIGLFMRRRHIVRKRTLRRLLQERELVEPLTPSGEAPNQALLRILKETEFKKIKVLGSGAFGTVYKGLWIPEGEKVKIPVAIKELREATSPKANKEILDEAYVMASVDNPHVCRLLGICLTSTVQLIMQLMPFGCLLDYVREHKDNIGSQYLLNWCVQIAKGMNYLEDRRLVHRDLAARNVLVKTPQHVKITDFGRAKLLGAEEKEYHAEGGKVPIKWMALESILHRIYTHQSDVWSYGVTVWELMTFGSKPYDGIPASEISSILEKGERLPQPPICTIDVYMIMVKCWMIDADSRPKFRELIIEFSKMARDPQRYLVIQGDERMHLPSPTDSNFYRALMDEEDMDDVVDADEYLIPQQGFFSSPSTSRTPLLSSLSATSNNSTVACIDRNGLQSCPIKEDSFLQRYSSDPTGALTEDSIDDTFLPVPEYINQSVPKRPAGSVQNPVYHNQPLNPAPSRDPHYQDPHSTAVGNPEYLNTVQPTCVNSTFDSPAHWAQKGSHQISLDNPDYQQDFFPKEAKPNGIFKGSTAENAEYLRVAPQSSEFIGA

PC-9 [8] = experiment: Cytotoxicity against human PC-9 cells assessed as reduction in cell viability incubated for 48 hrs by CCK-8 assay; assay type: functional, cell-based; settings: PC-9, 48 h
NCI-H1975 [9] = experiment: Cytotoxicity against human NCI-H1975 cells assessed as reduction in cell viability incubated for 48 hrs by CCK-8 assay; assay type: functional, cell-based; settings: NCI-H1975, 48 h
NCI-H292 = experiment: Cytotoxicity against human NCI-H292 cells assessed as reduction in cell viability incubated for 48 hrs by CCK-8 assay; assay type: functional, cell-based; settings: NCI-H292, 48 h
LoVo [10] = experiment: Antiproliferative activity against human LoVo cells harboring wild-type EGFR assessed as reduction in cell viability; assay type: functional, cell-based
PC-9 [11] = experiment: Antiproliferative activity against human PC-9 cells harboring EGFR del19 mutant assessed as cell growth inhibition incubated for 72 hrs by CellTiter Glo assay; assay type: functional, cell-based; settings: PC-9, 72 h

pIC50 (LoVo [1]): 5.05
pIC50 (PC-9 [2]): 6.45
pIC50 (NCI-H1975 [3]): 6.75
Compound: C=CC(=O)Nc1cc(Nc2ncc(Cl)c(-c3cnn4ccccc34)n2)c(OC)cc1N1CCN(C(=O)[C@@H](C)N)CC1

pIC50 (A-431): 7.23
pIC50 (NCI-H1975 [4]): 8.09
Compound: C=CC(=O)Nc1cc(Nc2ncc(Cl)c(-c3cn(C4CC4)c4ccccc34)n2)c(OC)cc1N(C)CCN(C)C

Compound: CN(C)C1CCN(c2ccc(Nc3nccc(-c4cn(C)c5ccccc45)n3)cc2)CC1
pIC50 [5]: 6.35
pIC50 [6]: 6.40

pIC50 (LoVo [1]): 5.47
pIC50 (PC-9 [2]): 7.80
pIC50 (NCI-H1975 [3]): 8.70
Compound: C=CC(=O)Nc1cc(Nc2ncc(Cl)c(-c3cnn4ccccc34)n2)c(OC)cc1N1CC[C@@H](N(C)C)C1

Compound: COc1cc(N(C)CCN(C)C)c(NC(=O)CNC(=O)OC(C)(C)C)cc1Nc1nccc(-c2cn(C)c3ccccc23)n1
pIC50 [5]: 5.89
pIC50 [6]: 5.89

pIC50 [7]: < 6.30
Compound: COc1cc(N(C)CCN(C)C)c(NC(=O)c2ccncc2OC)cc1Nc1nccc(-c2cn(C)c3ccccc23)n1

Compound: Cn1cc(-c2ccnc(Nc3ccc(N4CCC(N5CCOCC5)CC4)cc3)n2)c2ccccc21
pIC50 [5]: 5.24
pIC50 [6]: 5.77

Compound: Cn1cc(-c2ccnc(Nc3cccc(NC(=O)CCN)c3)n2)c2ccccc21
pIC50 [5]: 5.32
pIC50 [6]: 5.30

pIC50 [7]: < 6.30
Compound: COc1cc(N(C)CCN(C)C)c(NC(=O)c2ncccn2)cc1Nc1nccc(-c2cn(C)c3ccccc23)n1

pIC50 [7]: 6.38
Compound: COc1cc(N(C)CCN(C)C)c(NC(=O)c2ccnc(Cl)c2)cc1Nc1nccc(-c2cn(C)c3ccccc23)n1

pIC50 (LoVo [1]): 5.00
pIC50 (PC-9 [2]): 7.14
pIC50 (NCI-H1975 [3]): 7.80
Compound: C=CC(=O)Nc1cc(Nc2ncc(Cl)c(-c3cnn4ccccc34)n2)c(OC)cc1N1CCN(C(=O)CN(C)C)CC1

Compound: C=CC(=O)Nc1cc(Nc2ncc(F)c(-c3csc4ccccc34)n2)c(OC)cc1N(C)CCNC(C)C
pIC50 (PC-9 [8]): 7.52
pIC50 (NCI-H1975 [9]): 7.89
pIC50 (NCI-H292): 5.40

pIC50 (LoVo [1]): 4.99
pIC50 (PC-9 [2]): 6.75
pIC50 (NCI-H1975 [3]): 7.12
Compound: C=CC(=O)Nc1cc(Nc2ncc(Cl)c(-c3cnn4ccccc34)n2)c(OC)cc1N1CCN(C(=O)[C@H](C)O)CC1

Compound: COc1cc(N2CCC(N3CCN(C)CC3)CC2)ccc1Nc1ncc(Cl)c(Nc2ccccc2P(C)(C)=O)n1 [BRIGATINIB]
pIC50 [5]: 6.35
pIC50 [6]: 6.46

Compound: CN(C)C1CCN(c2ccc(Nc3nccc(-c4cn(C)c5ccccc45)n3)cc2NS(C)(=O)=O)CC1
pIC50 [5]: 6.77
pIC50 [6]: 6.80

pIC50 (LoVo [10]): 7.15
pIC50 (NCI-H1975 [3]): 9.00
Compound: C=CC(=O)Nc1cc(Nc2ncc(C)c(-c3cn(C)c4ccccc34)n2)c(OC)cc1N(C)CCN(C)C

Compound: C=CC(=O)Nc1cc(Nc2nccc(-c3csc4ccccc34)n2)c(OC)cc1N1CCN(C)CC1
pIC50 (PC-9 [8]): 5.72
pIC50 (NCI-H1975 [9]): 6.30
pIC50 (NCI-H292): < 5.00

pIC50 (LoVo [1]): 5.12
pIC50 (PC-9 [2]): 6.81
pIC50 (NCI-H1975 [3]): 7.18
Compound: C=CC(=O)Nc1cc(Nc2ncc(Cl)c(-c3cnn4ccccc34)n2)c(OC)cc1N1CCN(C(=O)CNC)CC1

pIC50 (PC-9 [11]): 8.70
pIC50 (LoVo [10]): 7.48
pIC50 (NCI-H1975 [3]): 8.70
Compound: C=CC(=O)Nc1cc(Nc2nccc(-c3c[nH]c4ccccc34)n2)c(OC)cc1N(C)CCN(C)C

pIC50 (LoVo [1]): 6.03
pIC50 (PC-9 [2]): 7.68
Compound: C=CC(=O)Nc1cc(Nc2ncc(Cl)c(-c3cnn4ccccc34)n2)c(OC)cc1N1CC(N(C)C)C1

Compound: C=CC(=O)Nc1cc(Nc2nccc(-c3csc4ccccc34)n2)c(OC)cc1N1CCN(CC)CC1
pIC50 (PC-9 [8]): 6.10
pIC50 (NCI-H1975 [9]): 7.05
pIC50 (NCI-H292): < 5.00

pIC50 [7]: < 6.30
Compound: COc1cc(N(C)CCN(C)C)c(NC(=O)c2cnccn2)cc1Nc1nccc(-c2cn(C)c3ccccc23)n1

Compound: COc1cc(N2CCC(N(C)C)CC2)c(NC(=O)CO)cc1Nc1nccc(-c2cn(C)c3ccccc23)n1
pIC50 [5]: 6.32
pIC50 [6]: 6.34

Compound: Cn1cc(-c2ccnc(Nc3ccc(N4CCCCC4)cc3)n2)c2ccccc21
pIC50 [5]: < 5.00
pIC50 [6]: 5.00

pIC50 [7]: 7.37
Compound: C=CC(=O)Nc1cc(Nc2nccc(Nc3ccn(C)n3)n2)c(OC)cc1N(C)CCN(C)CC(=O)OC
